In the NIST ThermoML archive (doi:10.1016/j.jct.2018.07.002):
Numbers after ± are expanded uncertainties.

Experiments:
[1] = molar heat capacity at constant pressure; conditions: 100 kPa, Liquid, isoperibol calorimetry
[2] = excess molar enthalpy (molar enthalpy of mixing); xn = mol fraction of the nth substance listed; conditions: 313.15 K, 100 kPa, Liquid, Power-compensation calorimetry

SMILES | molar heat capacity at constant pressure ([1]; 303.15 K) [J/K/mol] | molar heat capacity at constant pressure ([1]; 313.15 K) [J/K/mol] | molar heat capacity at constant pressure ([1]; 323.15 K) [J/K/mol] | molar heat capacity at constant pressure ([1]; 333.15 K) [J/K/mol] | molar heat capacity at constant pressure ([1]; 343.15 K) [J/K/mol] | molar heat capacity at constant pressure ([1]; 353.15 K) [J/K/mol] | molar heat capacity at constant pressure ([1]; 363.15 K) [J/K/mol] | molar heat capacity at constant pressure ([1]; 373.15 K) [J/K/mol] | excess molar enthalpy ([2]; x1 = 0.017) [kcal/mol] | excess molar enthalpy ([2]; x1 = 0.019) [kcal/mol] | excess molar enthalpy ([2]; x1 = 0.023) [kcal/mol] | excess molar enthalpy ([2]; x1 = 0.027) [kcal/mol] | excess molar enthalpy ([2]; x1 = 0.25) [kcal/mol] | excess molar enthalpy ([2]; x1 = 0.5) [kcal/mol]
CCOP(=O)([O-])OCC.CCn1cc[n+](C)c1 [1-ethyl-3-methylimidazolium diethyl phosphate] | 504.73 ± 32 | 507.38 ± 32 | 510.02 ± 32 | 515.3 ± 32 | 523.23 ± 32 | 528.52 ± 32 | 536.44 ± 32 | 541.73 ± 32 | – | – | – | – | – | –
CCOP(=O)([O-])OCC.CCn1cc[n+](C)c1 [1-ethyl-3-methylimidazolium diethyl phosphate] + O | – | – | – | – | – | – | – | – | -0.112 ± 0.00454 | -0.13 ± 0.00526 | -0.154 ± 0.00621 | -0.181 ± 0.00741 | -1.19 ± 0.0478 | -1.26 ± 0.0502
